Ten compounds from US20260317319A1, “NOVEL ERGOLINES AND METHODS OF TREATING MOOD DISORDERS” (Gilgamesh Pharma Inc., priority 2023, published 2026) can be followed below.

Data set [1] is described as follows: in vitro. It is filed as in vitro ADME, rat. As to conditions: rat, microsomes, RLM (male Sprague-Dawley) 0.50 mg/mL, NADPH 1 mM, 1 μM compound, pH 7.4, 37° C., 60 min; for microsomal CLint: read-out: Intrinsic clearance (Clint); for half-life: read-out: half-life (t1/2). An excerpt: RLM Stability Pooled RLM from male Sprague-Dawley rats (Xenotech R1000) were used.

For data set [2], the target named is T1, 5-HT2A receptor (Homo sapiens, UniProt P28223). Kind of data set: cell-based. The format is cell-based. Further details: expressed in transfected cells; host or cells: HEK293, stably transfected. As to conditions: Ca2+ flux; for EC50: HEK293; for Emax: HEK293, agonist, read-out: 5-HT2A % Act @ Max Dose. The procedure: (§1) Functional Assays at 5-HT2A, 5-HT2B, and 5-HT1A. Agonist activity at 5-HT2A, 5-HT2B, 5HT2C and 5-HT1A receptors was determined using a FLIPR Ca^2+ flux assay at WuXi AppTec (Hong Kong) Limited according to their standard protocols. Briefly, stably transfected cells expressing the receptor of interest and Gα15 in the case of 5-HT1A (HEK293 for 5-HT2A and 5-HT2B; CHO cells for 5-HT1A) were grown and plated in a 384 well plate and incubated at 37° C. and 5% CO2 overnight. A solution of 250 mM probenecid in 1 mL FLIPR assay buffer was prepared fresh. This was combined with a fluorescent dye (Fluo-4 Direct™) to make a final assay concentration of 2.5 mM. […] The fluorescent dye was then added to the assay plate along with assay buffer to a final volume of 40 μL. The cell plate was incubated for 50 min at 37° C. and 5% CO2 and placed into the FLIPR Tetra along with the compound plate. 10 μL of references and compounds were then transferred from the compound plate into the cell plate and the fluorescent signal was read.
T1 sequence (P28223 whole entry): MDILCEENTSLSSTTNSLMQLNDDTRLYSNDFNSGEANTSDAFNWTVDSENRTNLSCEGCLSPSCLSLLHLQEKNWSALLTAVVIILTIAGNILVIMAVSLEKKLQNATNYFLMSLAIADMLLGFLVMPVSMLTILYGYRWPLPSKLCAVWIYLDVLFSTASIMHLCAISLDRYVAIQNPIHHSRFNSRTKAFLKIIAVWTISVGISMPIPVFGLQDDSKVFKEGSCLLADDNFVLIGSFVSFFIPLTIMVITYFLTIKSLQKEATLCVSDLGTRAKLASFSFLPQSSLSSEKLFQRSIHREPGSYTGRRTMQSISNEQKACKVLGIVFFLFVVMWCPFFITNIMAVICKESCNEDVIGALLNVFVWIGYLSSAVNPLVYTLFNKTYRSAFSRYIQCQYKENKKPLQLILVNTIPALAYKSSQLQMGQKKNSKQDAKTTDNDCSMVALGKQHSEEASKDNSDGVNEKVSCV
On the technique in general: Calcium flux is commonly read through the fluorescence of an indicator in the cells.

The target of data set [3] is T2, 5-HT1A receptor (Homo sapiens, UniProt P08908).
T2 construct: expressed in transfected cells; host or cells: CHO cells, stably transfected
T2 sequence (P08908 1-422): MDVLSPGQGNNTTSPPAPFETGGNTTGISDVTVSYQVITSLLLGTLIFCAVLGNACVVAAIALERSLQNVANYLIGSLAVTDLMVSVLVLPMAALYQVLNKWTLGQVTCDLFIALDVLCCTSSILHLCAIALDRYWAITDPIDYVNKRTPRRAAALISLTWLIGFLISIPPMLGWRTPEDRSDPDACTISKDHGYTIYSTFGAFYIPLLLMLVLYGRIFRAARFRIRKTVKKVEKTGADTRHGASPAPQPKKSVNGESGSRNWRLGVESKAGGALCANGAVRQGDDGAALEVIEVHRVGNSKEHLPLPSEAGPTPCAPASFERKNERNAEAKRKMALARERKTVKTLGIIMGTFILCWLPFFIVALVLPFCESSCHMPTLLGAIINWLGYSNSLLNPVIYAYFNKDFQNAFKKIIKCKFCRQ
Kind of data set: cell-based. The note with it: agonist, Ca2+ flux; for EC50: CHO cells with Gα15; for Emax: CHO, read-out: 5-HT1A % Act @ Max Dose. As to the method:
as §1

The nature of data set [4]: in vitro. The format is in vitro ADME, human. The note with it: human, microsomes, HLM 0.50 mg/mL, NADPH 1 mM, 1 μM compound, pH 7.4, 37° C., 60 min; for microsomal CLint: read-out: Intrinsic clearance (Clint); for half-life: read-out: half-life (t1/2).
Data set [5] deals with T1, 5-HT2A receptor. Kind of data set: biochemical. Details: expressed in transfected cells; host or cells: HEK293, stably transfected. As to conditions: [3H]ketanserin 1 nM; HEK293 stable cell line; 1 h, 25 °C. The format is binding. The procedure: Affinity of the test compounds for the 5-HT2A receptor was determined in radioligand binding experiments with [^3H]ketanserin by WuXi AppTec (Hong Kong) Limited, using methods adapted from the literature and under conditions described in Table 1.

A short description of data set [6]: in vitro. It is filed as in vitro ADME, mouse. As to conditions: mouse, microsomes, MLM (male CD-1) 0.50 mg/mL, NADPH 1 mM, 1 μM compound, pH 7.4, 37° C., 60 min; for microsomal CLint: read-out: Intrinsic clearance (Clint); for half-life: read-out: half-life (t1/2). From the text: MLM Stability Pooled MLM from male CD-1 mice (BIOIVT M00501) were used.
Data set [7] addresses T3, 5-HT2B receptor (Homo sapiens, UniProt P41595).
T3 construct: expressed in transfected cells; host or cells: HEK293, stably transfected
Kind of data set: cell-based. As to conditions: Ca2+ flux; for EC50: agonist, HEK293; for Emax: HEK293, agonist, HEK293, max dose, read-out: 5-HT2B % Act @ Max Dose. It is filed as cell-based. The procedure:
as §1

The structures appear in SMILES notation. Where “and” joins values, the source holds several entries; their conditions need not be identical. Identical values can stand only once. Like-named read-outs stand apart in the source and are kept apart here.

T3 sequence (P41595 whole entry): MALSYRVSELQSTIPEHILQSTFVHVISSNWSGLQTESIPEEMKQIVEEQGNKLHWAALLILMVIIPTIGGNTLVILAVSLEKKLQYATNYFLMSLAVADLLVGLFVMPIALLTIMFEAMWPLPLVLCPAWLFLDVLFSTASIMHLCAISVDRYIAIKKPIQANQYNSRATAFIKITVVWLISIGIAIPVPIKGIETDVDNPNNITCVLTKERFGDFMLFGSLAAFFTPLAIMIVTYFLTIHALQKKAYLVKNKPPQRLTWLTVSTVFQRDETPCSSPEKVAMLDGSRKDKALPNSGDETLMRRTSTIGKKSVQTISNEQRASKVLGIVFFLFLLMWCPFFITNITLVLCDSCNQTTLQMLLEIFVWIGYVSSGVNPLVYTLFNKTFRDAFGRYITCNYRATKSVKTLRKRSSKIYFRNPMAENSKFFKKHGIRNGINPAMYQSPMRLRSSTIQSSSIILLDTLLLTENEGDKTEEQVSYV

Broadly, the EC50 is the concentration needed to bring the measured effect to its halfway point. Low readings indicate higher potency in that assay, high ones lower potency in that assay. Usually Ki stands for a measure of affinity in units of concentration, obtained from inhibition or displacement. Read a high Ki as lower affinity. With `CCN(CC)C(=O)[C@@H]1C=C2c3cccc4[nH]cc(c34)C[C@H]2N(Cc2ncco2)C1` [Compound 74, (6aR,9R)—N,N-diethyl-7-(oxazol-2-ylmethyl)-4,6,6a,7,8,9-hexahydroindolo[4,3-fg]quinoline-9-carboxamide], the microsomal CLint in data set [1] was determined as 71.7 µL/min/mg; in data set [4], 45.5 µL/min/mg; in data set [6], 83.3 µL/min/mg. Besides, the half-life in data set [1] is 19.3 min; in data set [4] it was 30.5 min; in data set [6], 16.6 min. The EC50 in data set [2] (agonist) was 289 nM and 54.3 nM. Moreover, in data set [2] (agonist, HEK293, max dose), the “5-HT2A % Act @ Max Dose” value is 63% and 89.01%. The “5-HT1A % Act @ Max Dose” value in data set [3] (CHO cells with Gα15, max dose) is 51.28% and 82.73%. Also, affinity in data set [5] was put at a Ki of 52.5 nM.

Take `CCN(CC)C(=O)[C@@H]1C=C2c3cccc4[nH]cc(c34)C[C@H]2N(Cc2cccs2)C1` [Compound 104]: the concentration giving a half-maximal response (EC50) amounted to 731 nM in data set [7], 844 nM in data set [2] (agonist) and 730 nM in data set [3]. The inhibitory constant (Ki) in data set [5] was determined as 1.42 nM.

As for `CC[C@@H](C)NC(=O)[C@@H]1C=C2c3cccc4[nH]cc(c34)C[C@H]2N(Cc2ccccc2)C1` [Compound 88, (6aR,9R)-7-benzyl-N—((R)-sec-butyl)-4,6,6a,7,8,9-hexahydroindolo[4,3-fg]quinoline-9-carboxamide], the Emax in data set [7] was determined as 0.88%; in data set [2] (HEK293, max dose) it was 73.6%; in data set [3] (CHO cells with Gα15, max dose), 76.7%. Besides, the values for the concentration for a half-maximal effect (EC50) in data set [7], in data set [2] (agonist) and in data set [3] were greater than 10000 nM, 347 nM and 8710 nM, respectively. Also, the microsomal CLint was determined as 246 µL/min/mg in data set [1], 455 µL/min/mg in data set [4] and 774 µL/min/mg in data set [6]. Moreover, the half-life in data set [1] is 5.6 min; in data set [4] it was 3 min; in data set [6] it was 1.8 min. The same compound displayed a Ki in data set [5] of 3.1 nM.

Consider `CCCN(CC)C(=O)[C@@H]1C=C2c3cccc4[nH]cc(c34)C[C@H]2N(Cc2ccccc2)C1` [Compound 86, (6aR,9R)-7-benzyl-N-ethyl-N-propyl-4,6,6a,7,8,9-hexahydroindolo[4,3-fg]quinoline-9-carboxamide], for which the Emax in data set [7] came to 7.82%; in data set [2] (HEK293, max dose), 67%; in data set [3] (CHO cells with Gα15, max dose) it was 49.1%. The EC50 in data set [7] stood at 1280 nM; in data set [2] (agonist), 933 nM; in data set [3], 15500 nM. For the same compound, the figures for the microsomal CLint in data set [1], in data set [4] and in data set [6] were 117 µL/min/mg, 128 µL/min/mg and 380 µL/min/mg, respectively. In addition, the half-life in data set [1] was 11.9 min; in data set [4] it was 10.9 min; in data set [6] it was 3.6 min. The compound further returned a Ki in data set [5] of 1.6 nM.

On to `CCCN(CC)C(=O)[C@@H]1C=C2c3cccc4[nH]cc(c34)C[C@H]2N(Cc2cccc(OC)c2)C1` [Compound 93, (6aR,9R)—N-ethyl-7-(3-methoxybenzyl)-N-propyl-4,6,6a,7,8,9-hexahydroindolo[4,3-fg]quinoline-9-carboxamide], for which the Emax in data set [7] is 1.24%; in data set [2] (HEK293, max dose), 44.6%; in data set [3] (CHO cells with Gα15, max dose) it was 21.1%. The values for the 50% effective concentration (EC50) in data set [7], in data set [2] (agonist) and in data set [3] were greater than 10000 nM, 1200 nM and greater than 100000 nM, respectively. Further, the microsomal CLint came out at 423 µL/min/mg in data set [1], 152 µL/min/mg in data set [4] and 600 µL/min/mg in data set [6]. For the same compound, the results for the half-life in data set [1], in data set [4] and in data set [6] were 3.3 min, 9.1 min and 2.3 min, respectively. This compound came in with a Ki in data set [5] of 4.73 nM.

As to `COc1cccc(CN2C[C@H](C(=O)N3[C@@H](C)C[C@@H]3C)C=C3c4cccc5[nH]cc(c45)C[C@H]32)c1` [Compound 94, ((2S,4S)-2,4-dimethylazetidin-1-yl)((6aR,9R)-7-(3-methoxybenzyl)-4,6,6a,7,8,9-hexahydroindolo[4,3-fg]quinolin-9-yl)methanone], the Emax in data set [7] was -1.21%; in data set [2] (HEK293, max dose), 30.4%; in data set [3] (CHO cells with Gα15, max dose), 64.8%. Also, the 50% effective concentration (EC50) in data set [7] is greater than 10000 nM; in data set [2] (agonist), 792 nM; in data set [3] it was greater than 100000 nM. Also, the microsomal CLint in data set [1] stood at 352 µL/min/mg; in data set [4] it was 116 µL/min/mg; in data set [6], 1340 µL/min/mg. In addition, the half-life came out at 3.9 min in data set [1], 11.9 min in data set [4] and 1 min in data set [6]. Besides, the inhibitory constant (Ki) in data set [5] was determined as 13.7 nM.

In turn, `CCN(CC)C(=O)[C@H]1C=C2c3cccc4[nH]cc(c34)C[C@H]2N(Cc2ccc(C)cc2)C1` [Compound 97a, (6aR,9S)—N,N-diethyl-7-(4-methylbenzyl)-4,6,6a,7,8,9-hexahydroindolo[4,3-fg]quinoline-9-carboxamide] registered a concentration for a half-maximal effect (EC50) in data set [2] (agonist) greater than 1260 nM. This compound also came in with an inhibition constant (Ki) in data set [5] greater than 1230 nM.

As for `CCN(CC)C(=O)[C@H]1C=C2c3cccc4[nH]cc(c34)C[C@H]2N(CC2CCCCC2)C1` [Compound 89a, (6aR,9S)-7-(cyclohexylmethyl)-N,N-diethyl-4,6,6a,7,8,9-hexahydroindolo[4,3-fg]quinoline-9-carboxamide], the values for the microsomal CLint in data set [1], in data set [4] and in data set [6] were 304 µL/min/mg, 91.5 µL/min/mg and 743 µL/min/mg, respectively. Further, the half-life came to 4.6 min in data set [1], 15.2 min in data set [4] and 1.9 min in data set [6]. Besides, the Emax in data set [2] (HEK293, max dose) is 3.92%. Also, the EC50 in data set [2] (agonist) is greater than 1000 nM. Also, in data set [5], the Ki came to 208 nM.

As to `CCN(CC)C(=O)[C@@H]1C=C2c3cccc4[nH]cc(c34)C[C@H]2N(Cc2cnco2)C1` [Compound 75, (6aR,9R)—N,N-diethyl-7-(oxazol-5-ylmethyl)-4,6,6a,7,8,9-hexahydroindolo[4,3-fg]quinoline-9-carboxamide], the figures for the microsomal CLint in data set [1], in data set [4] and in data set [6] were 56.3 µL/min/mg, 35 µL/min/mg and 83.1 µL/min/mg, respectively. The figures for the half-life in data set [1], in data set [4] and in data set [6] were 24.6 min, 39.6 min and 16.7 min, respectively. In data set [5], the affinity corresponds to a Ki of 12.8 nM.

As to `CCCN(CC)C(=O)[C@H]1C=C2c3cccc4[nH]cc(c34)C[C@H]2N(Cc2ccccc2)C1` [Compound 86a, (6aR,9S)-7-benzyl-N-ethyl-N-propyl-4,6,6a,7,8,9-hexahydroindolo[4,3-fg]quinoline-9-carboxamide], the microsomal CLint in data set [1] is 330 µL/min/mg; in data set [4], 95.2 µL/min/mg; in data set [6] it was 1010 µL/min/mg. In addition, the figures for the half-life in data set [1], in data set [4] and in data set [6] were 4.2 min, 14.6 min and 1.4 min, respectively. This compound also gave an inhibition constant (Ki) in data set [5] of 671 nM.
